Test results reported in patent US4971985A, “Pyridylketoxime ether compound and pharmaceutical composition containing it” (Kaken Pharmaceutical Co., Ltd., priority 1988, dated 1990).
Structures can show the parent of a compound that is named as a salt. Where two headings read alike, the source gives them in different places.

Assays:
erythrocytes = test: Activity to improve the deformation of erythrocytes (time to pass through millipore filter); assay type: cell-based, male New Zealand rabbit; conditions: rabbit washed erythrocytes treated with Ca^2+ and ionofore A-23187; 5 μm millipore filter
Method: A suspension of washed erythrocytes was prepared from a blood collected by heart puncture from a male New Zealand rabbit having a body weight of about 3 kg and having Heparin added thereto, by using a Krebs-Henseleit solution containing 20 mM of HEPES. […] As a control drug, W-7 was used.

[1] = biological target: T1, bovine cerebral calmodulin (Bos taurus, UniProt P62157); test: Calmodulin antagonism (inhibition of 5'-AMP formation by calmodulin-stimulated c-AMP-PDE); assay type: biochemical
T1 construct: bovine cerebral calmodulin; from tissue; host or cells: bovine brain (calmodulin); bovine myocardium (PDE)
From the text: As a control drug, W-7 [N-(6-aminohexyl)-5-chloro-1-naphthalenesulfonamide]was used.

Ca^2 + Channel = biological target: T2, Ca^2 + Channel (Cavia porcellus, UniProt O35505); test: Calcium channel antagonism (isolated guinea pig cecum string, calcium chloride concentration reaction curve); assay type: cell-based, male Hartley guinea pig; conditions: high potassium Krebs solution, 32° C, pretreatment 30 minutes, read-out: Ca^2 + Channel antagonism (pA2) (converted)
T2 construct: The cecum string of a male Hartley guinea pig; from tissue; host or cells: isolated cecum string (taenia caeci) of male Hartley guinea pig
T2 sequence (O35505 whole entry): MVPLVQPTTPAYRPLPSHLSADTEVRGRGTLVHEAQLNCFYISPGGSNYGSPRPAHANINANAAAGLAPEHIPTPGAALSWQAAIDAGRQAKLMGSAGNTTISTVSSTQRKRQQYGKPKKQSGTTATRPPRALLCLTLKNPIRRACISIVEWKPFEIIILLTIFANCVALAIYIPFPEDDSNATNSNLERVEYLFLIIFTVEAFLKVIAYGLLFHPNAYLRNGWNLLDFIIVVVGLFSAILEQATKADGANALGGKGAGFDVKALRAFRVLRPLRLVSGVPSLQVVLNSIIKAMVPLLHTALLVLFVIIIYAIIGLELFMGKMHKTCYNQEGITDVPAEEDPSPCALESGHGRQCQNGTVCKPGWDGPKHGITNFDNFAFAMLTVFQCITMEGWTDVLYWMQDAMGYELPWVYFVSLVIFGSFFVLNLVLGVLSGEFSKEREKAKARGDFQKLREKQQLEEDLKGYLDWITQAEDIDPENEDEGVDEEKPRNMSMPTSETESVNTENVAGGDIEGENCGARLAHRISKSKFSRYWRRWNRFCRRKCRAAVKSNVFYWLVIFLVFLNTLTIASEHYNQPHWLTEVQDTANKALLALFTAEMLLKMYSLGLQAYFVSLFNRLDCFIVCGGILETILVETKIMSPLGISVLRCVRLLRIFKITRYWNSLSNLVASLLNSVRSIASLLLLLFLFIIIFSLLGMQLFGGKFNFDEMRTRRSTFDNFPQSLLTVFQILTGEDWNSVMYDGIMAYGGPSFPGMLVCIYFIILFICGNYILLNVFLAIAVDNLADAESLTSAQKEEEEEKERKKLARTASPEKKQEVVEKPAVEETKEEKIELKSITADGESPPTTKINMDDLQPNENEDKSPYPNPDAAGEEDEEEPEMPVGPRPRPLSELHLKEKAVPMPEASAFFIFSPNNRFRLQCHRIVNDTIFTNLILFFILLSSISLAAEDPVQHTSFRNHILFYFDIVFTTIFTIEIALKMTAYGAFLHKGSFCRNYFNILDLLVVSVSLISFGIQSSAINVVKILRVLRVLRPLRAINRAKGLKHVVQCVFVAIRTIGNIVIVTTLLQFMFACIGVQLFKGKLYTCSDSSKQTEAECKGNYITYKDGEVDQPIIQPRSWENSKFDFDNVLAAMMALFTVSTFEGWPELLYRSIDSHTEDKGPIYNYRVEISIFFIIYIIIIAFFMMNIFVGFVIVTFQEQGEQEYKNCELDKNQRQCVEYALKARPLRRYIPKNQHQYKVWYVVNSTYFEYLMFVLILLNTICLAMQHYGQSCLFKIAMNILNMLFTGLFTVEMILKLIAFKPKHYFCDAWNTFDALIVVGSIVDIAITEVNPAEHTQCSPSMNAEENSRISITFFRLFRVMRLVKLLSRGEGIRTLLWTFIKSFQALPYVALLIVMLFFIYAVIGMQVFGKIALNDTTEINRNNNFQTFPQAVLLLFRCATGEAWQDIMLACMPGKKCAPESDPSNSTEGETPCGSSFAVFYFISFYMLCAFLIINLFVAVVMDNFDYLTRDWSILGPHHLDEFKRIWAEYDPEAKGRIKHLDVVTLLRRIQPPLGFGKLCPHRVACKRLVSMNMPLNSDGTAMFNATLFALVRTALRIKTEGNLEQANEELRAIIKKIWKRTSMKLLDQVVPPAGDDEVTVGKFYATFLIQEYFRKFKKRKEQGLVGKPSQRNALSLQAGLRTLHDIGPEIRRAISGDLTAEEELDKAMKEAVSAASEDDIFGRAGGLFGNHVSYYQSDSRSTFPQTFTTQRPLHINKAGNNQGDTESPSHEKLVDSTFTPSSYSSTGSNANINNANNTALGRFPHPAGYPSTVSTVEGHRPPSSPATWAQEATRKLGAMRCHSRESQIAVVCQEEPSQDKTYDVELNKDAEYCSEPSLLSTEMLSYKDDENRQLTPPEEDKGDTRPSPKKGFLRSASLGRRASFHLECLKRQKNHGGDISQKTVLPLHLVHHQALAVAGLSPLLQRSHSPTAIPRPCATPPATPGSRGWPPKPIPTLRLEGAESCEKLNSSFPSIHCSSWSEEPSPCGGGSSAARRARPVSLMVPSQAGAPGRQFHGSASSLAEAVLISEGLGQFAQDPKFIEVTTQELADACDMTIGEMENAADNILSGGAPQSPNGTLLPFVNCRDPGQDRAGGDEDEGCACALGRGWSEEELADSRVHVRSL
Method: The cecum string of a male Hartley guinea pig having a body weight of 350 g was taken out, and while air was supplied,.it was hanged with a load of 0.5 g in a high potassium Krebs solution bath (32° C) having calcium removed. Calcium chloride was accumulatively added, and the reaction was recorded by means of an isotonic tranduser (manufactured by Nippon Koden K. K.) to obtain a constant standard concentration reaction curve.
On the other hand, pretreatment with a compound of the present invention was conducted for 30 minutes, and then calcium chloride was added to the reaction bath, and from concetration reaction curve thereby obtained, pA2 was obtained.

[2] = 50 m units bovine cerebral calmodulin, 0.1 mM Ca^2+, 1 μM c-AMP, 0.875 m units bovine myocardial c-AMP-PDE, read-out: Calmodulin antagonism IC50

Row | SMILES | Activity to improve the deformation of erythrocytes [pass through time (sec.)] (erythrocytes) [s] | IC50 [1, 2] [µM] | Kb (Ca^2 + Channel) [µM] | IC50 [1] [µM]
1 | CNc1ccc2oc(C[C@H]3O[C@@]4(CC[C@H]3C)O[C@H]([C@H](C)C(=O)c3ccc[nH]3)[C@H](C)C[C@H]4C)nc2c1C(=O)O [Calcium salt of A 23187, reference compound] | 39 |  |  | 
2 | c1ccc(CCON=C(c2ccccc2)c2cccnc2)cc1 [Compound 1, O-(2-phenylethyl)-phenyl-3-pyridylketoxime] | 12 | 3.8 | 0.275 | 
3 | COc1ccc(CON=C(c2ccccc2)c2ccccn2)cc1OC [Compound 13, O-(3,4-dimethoxybenzyl)-phenyl-2-pyridylketoxime] | 16 |  | 0.148 | 
4 | COc1ccc(CON=C(c2ccccc2)c2cccnc2)cc1OC [Compound 14, O-(3,4-dimethoxybenzyl)-phenyl-3-pyridiylketoxime] | 15 | 8 | 0.437 | 
5 | c1ccc(C(=NOCc2cccc3ccccc23)c2cccnc2)cc1 [Compound 20, O-(1-naphthylmethyl)-phenyl-3-pyridylketoxime] | 20 |  | 0.525 | 
6 | c1ccc(OCCON=C(c2ccccc2)c2cccnc2)cc1 [Compound 26, O-[(2-phenoxy)ethyl]-phenyl-3-pyridylketoxime] | 18 | 10 | 0.234 | 
7 | Cc1ccccc1CCON=C(c1ccccc1)c1cccnc1 [Compound 43, O-[2-(2-methylphenyl)ethyl]-phenyl-3-pyridylketoxime] | 14 | 4.1 | 0.479 | 
8 | Clc1ccccc1CCON=C(c1ccccc1)c1cccnc1 [Compound 46] | 18 | 8.8 |  | 
9 | Clc1cccc(CCON=C(c2ccccc2)c2cccnc2)c1 [Compound 47] | 15 | 6.3 |  | 
10 | Clc1ccc(C(=NOCCc2ccccc2)c2cccnc2)cc1 [Compound 57] | 20 |  |  | 9.5
11 | Clc1ccccc1C(=NOCCc1ccccc1)c1cccnc1 [Compound 58] | 12 |  |  | 3.5
12 | Cc1ccc(C)c(C(=NOCCc2ccccc2)c2cccnc2)c1 [Compound 62] | 18 | 8 | 0.933 | 
13 | Fc1cccc(C(=NOCCc2ccccc2)c2cccnc2)c1 [Compound 63] | 18 | 5 | 0.603 | 
14 | FC(F)(F)c1cccc(C(=NOCCc2ccccc2)c2cccnc2)c1 [Compound 64] | 16 | 6.5 | 0.871 | 
15 | O=[N+]([O-])c1cccc(C(=NOCCc2ccccc2)c2cccnc2)c1 [Compound 65] | 18 |  | 0.692 | 
16 | c1ccc(CCON=C(c2cccnc2)c2cccs2)cc1 [Compound 66] | 17 |  | 0.525 | 
17 | NCCCCCCNS(=O)(=O)c1cccc2c(Cl)cccc12 [Compound W-7, N-(6-aminohexyl)-5-chloro-1-naphthalenesulfonamide, reference compound] | 25 |  |  | 
